These results are taken from publication PMC6895213, “Four New Picrotoxane-Type Sesquiterpenes From Dendrobium nobile Lindl” (Frontiers in Chemistry, 2019).

For one data set, the system named is SGC-7901 cell line. Kind of data set: MTT cytotoxicity assay, SGC-7901. The class given is cell-based. The settings on record: MTT method, SGC-7901 cells. How it is done: (§1) The MTT method optimized by Mosmann ([1983]) was performed in vitro to test the cytotoxic activity of compounds 1–8. Cisplatin was used as a positive control.
(§2) Compounds 1–8 were tested for inhibitory activity against α-glycosidase using the PNPG method and for cytotoxic effects on SGC-7901, K562, A549, BEL-7402, and Hela cell lines using the MTT method (See Supplementary Table 1 in the Supplementary Material).
(In general: Tetrazolium dyes change colour on reduction, which living cells bring about.)

The next data set concerns the target α-glycosidase. Kind of data set: α-glycosidase inhibitory activity (PNPG method). The class given is biochemical. To be noted: yeast enzyme EC 3.2.1.20. How it is done:
Optical rotations were measured on a MCP 5100 modular compact polarimeter (Anton Paar, America). IR spectra were taken on a Nicolet 380 FT-IR instrument (Thermo, USA) as KBr discs. NMR spectra were recorded on a Bruker Avance III 500 MHz NMR spectrometer (Bruker, German). ESIMS and HRESIMS were recorded with amaZon SL (Bruker) or Compact QqTOF (Bruker). ECD spectra were measured by APL Chiascan (Applied Photophysics Ltd., England). Semi-preparative HPLC was carried out using a C18 column (Cosmosil-pack, 10 × 250 mm, 5 μm, 4 mL/min, Nacalai Tesque). C18 gel (20–45 μm, Fuji SilysiSa Chemical Co., Ltd., Greenville, NC, UA), Silica gel (60–80, 200–300 mesh, Qingdao Marine Chemical Co., Ltd., Qingdao, China), Sephadex LH-20 (Merck, Kenilworth, NJ, USA) were used for column chromatograghy. α-glycosidase (Sigma-Aldrich, UA) used for the bioactivity was derived from yeast and its EINECS (EC) unmber is 3.2.1.20.
The method optimized by Jong et al. ([2007]) was performed in vitro to test the α-glucosidase inhibitory activity of compounds 1–8. Acarbose was used as positive control.
as §2

The next data set deals with A549 cell line. Kind of data set: MTT cytotoxicity assay, A549. To be noted: MTT method, A549 cells. The format is cell-based. How it is done:
as §1, §2

The next data set deals with K562 cell line. The experiment in a line: MTT cytotoxicity assay, K562. The format is cell-based. To be noted: MTT method, K562 cells. Here is the method:
as §1, §2

Another data set relates to BEL-7402 cell line. The experiment in a line: MTT cytotoxicity assay, BEL-7402. The class given is cell-based. To be noted: MTT method, BEL-7402 cells. How it is done:
as §1, §2

A further data set concerns Hela cell line. The experiment in a line: MTT cytotoxicity assay, Hela. The class given is cell-based. To be noted: MTT method, Hela cells. How it is done: as §1, §2
For data set [1], the system named is activated murine macrophage-like cell line RAW 264.7. The arrangement: method as in Zhang et al., 2007b. The settings on record: activated RAW 264.7 cells; ref Zhang et al., 2007b; cited from earlier work.

The term IC50 denotes the point on the concentration scale where inhibition reaches its midpoint. Higher therefore signals a need for much substance. As a reminder, the melting point is the temperature, or range, at which the solid turns liquid.

As to `COc1cccc(CC2C3=C(Oc4c2cc(O)c(O)c4OC)C(=O)c2cc(O)c4cc(O)ccc4c2C3=O)c1` (stereo not shown) [Compound 6, dendrocandin V], the IC50 in the data set on SGC-7901 cell line (Homo sapiens) is greater than 50 µM; against α-glycosidase, 680 µM; in the data set on A549 cell line (Homo sapiens), greater than 50 µM; with K562 cell line (Homo sapiens), 28.2 µM; in the data set on BEL-7402 cell line (Homo sapiens) it was greater than 50 µM; with Hela cell line (Homo sapiens) it was greater than 50 µM.
With `CC(C)C1C2OC(=O)C1C1CCC3C(=O)OC2C31C` (stereo not shown) [Compound 3, Dendroterpene C], the IC50 in the data set on SGC-7901 cell line (Homo sapiens) is greater than 50 µM; against α-glycosidase, 970 µM; in the data set on A549 cell line (Homo sapiens), greater than 50 µM; in the data set with K562 cell line (Homo sapiens) it was greater than 50 µM; in the data set with BEL-7402 cell line (Homo sapiens), greater than 50 µM; in the data set with Hela cell line (Homo sapiens), greater than 50 µM.
The compound `CC(C)C1C2OC(=O)C1C1CCC3(O)C(=O)OC2C13C` (stereo not shown) [Compound 4, Dendroterpene D] had a melting point of 167 to 168 °C. This compound also registered an IC50 in the data set on SGC-7901 cell line (Homo sapiens) greater than 50 µM. Also, on α-glycosidase, the 50% inhibitory concentration (IC50) was greater than 1000 µM. Moreover, the 50% inhibitory concentration (IC50) in the data set on A549 cell line (Homo sapiens) is greater than 50 µM. The compound also gave an IC50 with K562 cell line (Homo sapiens) greater than 50 µM. This compound yielded an IC50 with BEL-7402 cell line (Homo sapiens) greater than 50 µM. Besides, the half-maximal inhibitory concentration (IC50) in the data set on Hela cell line (Homo sapiens) is greater than 50 µM.
Compound `CC(C)C1C2OC(=O)C1C1CC=CC1(C)C2NC=O` (stereo not shown) [Compound 1, Dendroterpene A] returned a melting point of 185 to 186 °C. In addition, the IC50 in the data set on SGC-7901 cell line (Homo sapiens) is greater than 50 µM. Besides, at α-glycosidase, the half-inhibitory concentration (IC50) is greater than 1000 µM. In addition, the 50% inhibitory concentration (IC50) in the data set on A549 cell line (Homo sapiens) is greater than 50 µM. Also, in the data set on K562 cell line (Homo sapiens), the concentration for half-maximal inhibition (IC50) was greater than 50 µM. For the same compound, in the data set with BEL-7402 cell line (Homo sapiens), the concentration for half-maximal inhibition (IC50) was greater than 50 µM. In the data set with Hela cell line (Homo sapiens), this compound returned an IC50 greater than 50 µM.
At α-glycosidase, `C[C@H]1O[C@H](O[C@H]2[C@H](O)[C@@H](O)[C@@H](O[C@H]3[C@H](O)[C@@H](O)C(O)O[C@@H]3CO)O[C@@H]2CO)[C@H](O)[C@@H](O)[C@@H]1N[C@H]1C=C(CO)[C@@H](O)[C@H](O)[C@H]1O` (stereo partly shown) [Acarbose, reference compound] displayed an IC50 of 720 µM.
On to `N.N.[Cl][Pt][Cl]` [Cisplatin, reference compound], for which the half-maximal inhibitory concentration (IC50) in the data set on SGC-7901 cell line stood at 4.11 µM; in the data set on A549 cell line it was 1.93 µM; in the data set on K562 cell line it was 3.08 µM; in the data set with BEL-7402 cell line, 4.02 µM; in the data set with Hela cell line, 11.3 µM.
`CC(=O)/C=C/[C@@]1(O)C(C)=CC(=O)CC1(C)C` [Compound 7, S(+)-dehydrovomifoliol]: the IC50 in the data set on SGC-7901 cell line (Homo sapiens) is greater than 50 µM; on α-glycosidase, greater than 1000 µM; with A549 cell line (Homo sapiens) it was greater than 50 µM; in the data set on K562 cell line (Homo sapiens), greater than 50 µM; in the data set with BEL-7402 cell line (Homo sapiens), greater than 50 µM; with Hela cell line (Homo sapiens) it was greater than 50 µM.
As to `CC(C)C1C2OC(=O)C1C1(O)CC=CC1(C)C2NC=O` (stereo not shown) [Compound 2, Dendroterpene B], the melting point is 200 to 201 °C. In addition, in the data set on SGC-7901 cell line (Homo sapiens), the IC50 was greater than 50 µM. Further, the half-maximal inhibitory concentration (IC50) against α-glycosidase is greater than 1000 µM. This compound gave an IC50 in the data set with A549 cell line (Homo sapiens) greater than 50 µM. In the data set on K562 cell line (Homo sapiens), this compound came in with an IC50 greater than 50 µM. Moreover, the half-maximal inhibitory concentration (IC50) in the data set on BEL-7402 cell line (Homo sapiens) was greater than 50 µM. Also, the IC50 with Hela cell line (Homo sapiens) was greater than 50 µM.
As for `Oc1ccc(CCOCCc2ccc(O)cc2)cc1` [Compound 8, di-[2-(4-hydroxyphenyl)] ethyl ether], the half-maximal inhibitory concentration (IC50) with SGC-7901 cell line (Homo sapiens) is greater than 50 µM; at α-glycosidase it was 300 µM; in the data set with A549 cell line (Homo sapiens), greater than 50 µM; in the data set with K562 cell line (Homo sapiens) it was greater than 50 µM; in the data set with BEL-7402 cell line (Homo sapiens), greater than 50 µM; in the data set on Hela cell line (Homo sapiens), greater than 50 µM.
On to `COc1cccc(CCc2cc(OC)c(O)c3c2C(Cc2cccc(OC)c2)c2cc(O)c(O)c(OC)c2O3)c1` (stereo not shown) [Compound 5, nobilin E], for which the IC50 in the data set with SGC-7901 cell line (Homo sapiens) came out at 17.3 µM; at α-glycosidase, 30 µM; in the data set on A549 cell line (Homo sapiens) it was 29 µM; with K562 cell line (Homo sapiens), 10.4 µM; in the data set with BEL-7402 cell line (Homo sapiens), 20.1 µM; in the data set with Hela cell line (Homo sapiens), 22.2 µM. Further, the “inhibitory effects on NO production” value in data set [1] was “exhibited inhibitory effects on NO production”.
